Experimental findings from patent US20260317324A1, “BIFUNCTIONAL COMPOUNDS FOR DEGRADING BRAF VIA UBIQUITIN PROTEOSOME PATHWAY” (Nurix Therapeutics, Inc., priority 2023, published 2026) are described below.

Format in all cases: cell-based
Test [1] addresses T1, BRAF G466V (Homo sapiens, UniProt P15056, G466V).
T1 construct: Horizon Discovery (HCT-116 BRAF−/− cells); host or cells: HCT-116 BRAF−/− cells, clone 8, lentiviral transduction
The test is described as follows: BRAF HiBiT degradation assay, C-terminal HiBiT-tagged BRAF G466V overexpressed in HCT-116 BRAF−/− cells (clone 8), Nano-Glo HiBiT Lytic assay. The procedure, abridged: (§1)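 HCT-116 BRAF−/− cells stably expressing the tagged mutant were seeded at 3,000 cells/well and grown 24 h at 37 °C before an 11-point half-log series from 1 μM to 0.01 nM, run in duplicate at 0.2% DMSO. Lytic HiBiT luminescence gave % protein remaining versus DMSO controls; DC50 was the fitted concentration at 50%.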
A general note: HiBiT is a short tag that completes a luciferase, so light tracks the accessible tagged protein.

The target in test [2] is T2, BRAF G469A (Homo sapiens, UniProt P15056, G469A).
T2 construct: Horizon Discovery (HCT-116 BRAF−/− cells); host or cells: HCT-116 BRAF−/− cells, clone 34, lentiviral transduction
T2 sequence (P15056 whole entry G469A): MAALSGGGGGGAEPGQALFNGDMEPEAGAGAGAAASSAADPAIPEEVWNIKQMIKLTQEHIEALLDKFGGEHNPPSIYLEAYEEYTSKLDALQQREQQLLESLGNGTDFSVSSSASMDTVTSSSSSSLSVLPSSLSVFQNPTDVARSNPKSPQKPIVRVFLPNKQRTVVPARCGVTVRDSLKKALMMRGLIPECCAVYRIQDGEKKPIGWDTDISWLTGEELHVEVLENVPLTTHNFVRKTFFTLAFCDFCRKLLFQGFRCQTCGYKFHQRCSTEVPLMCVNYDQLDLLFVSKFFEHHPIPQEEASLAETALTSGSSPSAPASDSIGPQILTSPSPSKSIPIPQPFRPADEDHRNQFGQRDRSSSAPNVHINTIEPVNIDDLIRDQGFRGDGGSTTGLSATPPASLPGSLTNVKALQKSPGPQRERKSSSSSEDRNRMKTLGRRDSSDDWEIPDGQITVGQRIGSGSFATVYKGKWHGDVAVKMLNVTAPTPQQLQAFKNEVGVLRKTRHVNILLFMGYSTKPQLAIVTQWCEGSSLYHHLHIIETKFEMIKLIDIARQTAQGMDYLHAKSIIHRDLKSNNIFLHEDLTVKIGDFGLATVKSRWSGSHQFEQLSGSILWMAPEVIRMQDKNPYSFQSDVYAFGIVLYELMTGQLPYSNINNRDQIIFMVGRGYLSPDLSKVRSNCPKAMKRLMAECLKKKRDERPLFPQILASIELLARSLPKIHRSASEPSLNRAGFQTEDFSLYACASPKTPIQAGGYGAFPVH
The test is described as follows: BRAF HiBiT degradation assay, C-terminal HiBiT-tagged BRAF G469A overexpressed in HCT-116 BRAF−/− cells (clone 34), Nano-Glo HiBiT Lytic assay. The procedure, abridged:
as §1

The target in test [3] is T3, BRAF V600E (Homo sapiens, UniProt P15056, V600E).
T3 construct: endogenous C-terminal HiBiT fusion tag on BRAF V600E allele; endogenous in cells; host or cells: A375 clone 1F10 (CRISPR-Cas9 knock-in of the HiBiT tag; parental A375 from ATCC)
T3 sequence (P15056 whole entry V600E, the tested form may be a part): as the sequence (P15056 whole entry G469A) above, with A469G, V600E counted along it
Put plainly: BRAF HiBiT degradation assay, C-terminal HiBiT-tagged BRAF V600E A375 cells (clone 1F10), Nano-Glo HiBiT Lytic assay. Conditions: for Dmax: A-375. The procedure, abridged: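 A375 cells with CRISPR knock-in C-terminal HiBiT on endogenous BRAF V600E (clone 1F10) were seeded and cultured 24 h at 37 °C, then dosed with an 11-point half-log series (1 μM to 0.01 nM, duplicate, 0.2% DMSO). Lytic HiBiT luminescence gave % protein remaining; DC50 was the fitted concentration at 50%.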

Test [4] has as its target T4, BRAF D594G (Homo sapiens, UniProt P15056, D594G).
T4 construct: Horizon Discovery (HCT-116 BRAF−/− cells); host or cells: HCT-116 BRAF−/− cells, clone 63, lentiviral transduction
Put plainly: BRAF HiBiT degradation assay, C-terminal HiBiT-tagged BRAF D594G overexpressed in HCT-116 BRAF−/− cells (clone 63), Nano-Glo HiBiT Lytic assay. The procedure, abridged:
as §1

Setting [5] is: BRAF G466V, DC50 at 50%: fitted conc. at Y=50.
Setting [6] is: HCT-116, BRAF G466V, percentage protein degraded at maximal compound effect relative to DMSO.
Where [7] appears, read: Class 2, BRAF G469A, DC50 at 50%: fitted conc. at Y=50.
Where [8] appears, read: HCT-116, Class 2, BRAF G469A, percentage protein degraded at maximal compound effect relative to DMSO.
The mark [9] stands for this setting: A375 (BRAF V600E), DC50 at 50%: fitted conc. at Y=50.
Where [10] appears, read: A375 (BRAF V600E), percentage protein degraded at maximal compound effect relative to DMSO.
The mark [11] stands for this setting: BRAF D594G, DC50 at 50%: fitted conc. at Y=50.
Where [12] appears, read: HCT-116, BRAF D594G, percentage protein degraded at maximal compound effect relative to DMSO.
Where [13] appears, read: BRAF G466V (Class 3), HCT-116 BRAF−/− cells, DC50 at 50% degradation.
The mark [14] stands for this setting: BRAF G466V (Class 3), HCT-116 BRAF−/− cells, observed Dmax relative to DMSO control.
The mark [15] stands for this setting: BRAF G469A (Class 2), HCT-116 BRAF−/− cells, DC50 at 50% degradation.
Where [16] appears, read: BRAF G469A (Class 2), HCT-116 BRAF−/− cells, observed Dmax relative to DMSO control.
[17] abbreviates: A375 (BRAF V600E, Class 1), DC50 at 50% degradation.
Where [18] appears, read: A375 (BRAF V600E, Class 1), observed Dmax, % protein degraded relative to DMSO control.
Where [19] appears, read: BRAF D594G (Class 3), HCT-116 BRAF−/− cells, DC50 at 50% degradation.
The mark [20] stands for this setting: BRAF D594G (Class 3), HCT-116 BRAF−/− cells, observed Dmax relative to DMSO control.

T4 sequence (P15056 whole entry D594G): as the sequence (P15056 whole entry G469A) above, with A469G, D594G counted along it
T1 sequence (P15056 whole entry G466V): as the sequence (P15056 whole entry G469A) above, with G466V, A469G counted along it

By DC50 is commonly meant the concentration giving 50% degradation. A word on the Dmax: it is the largest share of the target that was removed. Regarding `CCCS(=O)(=O)Nc1cccc(-c2nc(C(C)(C)C)sc2-c2ccnc(Nc3cnn(CC4CCN(C(=O)C[C@H]5CCN(c6ccc(C7CCC(=O)NC7=O)cc6)C5)CC4)c3)n2)c1F` (mixture of isomers) [Compound 111, N-(3-{2-tert-butyl-5-[2-({1-[(1-{2-[(3R)-1-{4-[(3RS)-2,6-dioxopiperidin-3-yl]phenyl}pyrrolidin-3-yl]acetyl}piperidin-4-yl)methyl]-1H-pyrazol-4-yl}amino)pyrimidin-4-yl]-1,3-thiazol-4-yl}-2-fluorophenyl)propane-1-sulfonamide], the DC50 in test [1] (setting [5]) was 50 to 500 nM; in test [2] (setting [7]), 50 to 500 nM; in test [3] (setting [9]) it was less than 10 nM; in test [4] (setting [11]), 50 to 500 nM. In addition, the Dmax in test [1] (setting [6]) is less than 30%; in test [2] (setting [8]), less than 30%; in test [3] (setting [10]), 30 to 70%; in test [4] (setting [12]), 30 to 70%.

As to `O=C1CCN(c2ccc(N3CCC(CN4CCN(c5ccc(-n6cc(-c7cc(Cl)cc(NS(=O)(=O)N8CC[C@@H](F)C8)c7F)c(-c7ccncc7)n6)cc5)CC4)CC3)nc2)C(=O)N1` [Compound 263, (R)—N-(5-chloro-3-(1-(4-(4-((1-(5-(2,4-dioxotetrahydropyrimidin-1(2H)-yl)pyridin-2-yl)piperidin-4-yl)methyl)piperazin-1-yl)phenyl)-3-(pyridin-4-yl)-1H-pyrazol-4-yl)-2-fluorophenyl)-3-fluoropyrrolidine-1-sulfonamide], the half-maximal degradation concentration (DC50) in test [1] (setting [13]), in test [2] (setting [15]), in test [3] (setting [17]) and in test [4] (setting [19]) was less than 10 nM in each case. For the same molecule, the greatest degradation seen (Dmax) in test [1] (setting [14]) was greater than 70%; in test [2] (setting [16]) it was 30 to 70%; in test [3] (setting [18]), greater than 70%; in test [4] (setting [20]) it was 30 to 70%.

Turning to `O=C1CCN(c2ccc(N3CCC(CN4CCN(c5ccc(-n6cc(-c7cc(Cl)cc(NS(=O)(=O)N8CC(F)C8)c7F)c(-c7ccncc7)n6)c(F)c5)CC4)CC3)nc2)C(=O)N1` [Compound 369, N-[5-chloro-3-(1-{4-[4-({1-[5-(2,4-dioxo-1,3-diazinan-1-yl)pyridin-2-yl]piperidin-4-yl}methyl)piperazin-1-yl]-2-fluorophenyl}-3-(pyridin-4-yl)-1H-pyrazol-4-yl)-2-fluorophenyl]-3-fluoroazetidine-1-sulfonamide], the DC50 in test [1] (setting [13]) was 10 to 50 nM; in test [2] (setting [15]), less than 10 nM; in test [3] (setting [17]), less than 10 nM; in test [4] (setting [19]), less than 10 nM. The Dmax in test [1] (setting [14]) was 30 to 70%; in test [2] (setting [16]), 30 to 70%; in test [3] (setting [18]), greater than 70%; in test [4] (setting [20]), 30 to 70%.

On to `O=C1CCC(c2ccc(N3CCC(CN4CCN(c5ccc(-n6cc(-c7cc(Cl)cc(NS(=O)(=O)N8CCCC8)c7F)c(-c7ccncc7)n6)cc5)CC4)CC3)c(F)c2)C(=O)N1` (racemic) [Compound 347, Rac-N-{5-chloro-3-[1-(4-{4-[(1-{4-[(3R)-2,6-dioxopiperidin-3-yl]-2-fluorophenyl}piperidin-4-yl)methyl]piperazin-1-yl}phenyl)-3-(pyridin-4-yl)-1H-pyrazol-4-yl]-2-fluorophenyl}pyrrolidine-1-sulfonamide], for which the DC50 in test [1] (setting [13]) is less than 10 nM; in test [2] (setting [15]) it was 10 to 50 nM; in test [3] (setting [17]), less than 10 nM; in test [4] (setting [19]) it was less than 10 nM. For the same molecule, the Dmax in test [1] (setting [14]) is greater than 70%; in test [2] (setting [16]), 30 to 70%; in test [3] (setting [18]), greater than 70%; in test [4] (setting [20]), greater than 70%.

Take `CCN(C)S(=O)(=O)Nc1cc(Cl)cc(-c2cn(-c3ccc(N4CCN(CC5CCN(c6ccc([C@H]7CCC(=O)NC7=O)cc6)CC5)CC4)cc3)nc2-c2ccncc2)c1F` [Compound 306, (3R)-3-(4-{4-[(4-{4-[4-(5-chloro-3-{[ethyl(methyl)sulfamoyl]amino}-2-fluorophenyl)-3-(pyridin-4-yl)-1H-pyrazol-1-yl]phenyl}piperazin-1-yl)methyl]piperidin-1-yl}phenyl)piperidine-2,6-dione]: the DC50 in test [1] (setting [13]) was less than 10 nM; in test [2] (setting [15]), 10 to 50 nM; in test [3] (setting [17]), less than 10 nM; in test [4] (setting [19]), less than 10 nM. The Dmax in test [1] (setting [14]) is greater than 70%; in test [2] (setting [16]), 30 to 70%; in test [3] (setting [18]), greater than 70%; in test [4] (setting [20]), 30 to 70%.

As to `O=C1CCC(c2ccc(N3CCC(CN4CCN(c5ccc(-n6cc(-c7cc(C(F)F)cc(NS(=O)(=O)N8CCCC8)c7F)c(-c7ccncc7)n6)c(F)c5)CC4)CC3)nc2)C(=O)N1` (racemic) [Compound 357, Rac-N-[5-(difluoromethyl)-3-[1-(4-{4-[(1-{5-[(3R)-2,6-dioxopiperidin-3-yl]pyridin-2-yl}piperidin-4-yl)methyl]piperazin-1-yl}-2-fluorophenyl)-3-(pyridin-4-yl)-1H-pyrazol-4-yl]-2-fluorophenyl]pyrrolidine-1-sulfonamide], the DC50 in test [1] (setting [13]) is less than 10 nM; in test [2] (setting [15]), 10 to 50 nM; in test [3] (setting [17]), less than 10 nM; in test [4] (setting [19]) it was less than 10 nM. The Dmax is greater than 70% in test [1] (setting [14]), greater than 70% in test [2] (setting [16]), greater than 70% in test [3] (setting [18]) and 30 to 70% in test [4] (setting [20]).

For the molecule `CCCS(=O)(=O)Nc1cccc(-c2nc(C(C)(C)C)sc2-c2ccnc(Nc3ccc(C4CCN(CC5CCN(c6ccc(C7CCC(=O)NC7=O)cn6)CC5)CC4)cc3)n2)c1F` (racemic) [Compound 35, Rac-N-[3-(2-tert-butyl-5-{2-[(4-{1-[(1-{5-[(3R)-2,6-dioxopiperidin-3-yl]pyridin-2-yl}piperidin-4-yl)methyl]piperidin-4-yl}phenyl)amino]pyrimidin-4-yl}-1,3-thiazol-4-yl)-2-fluorophenyl]propane-1-sulfonamide], the DC50 in test [1] (setting [5]) was greater than 500 nM; in test [2] (setting [7]), 10 to 50 nM; in test [3] (setting [9]), less than 10 nM; in test [4] (setting [11]), greater than 500 nM. Also, the Dmax in test [1] (setting [6]) is 30 to 70%; in test [2] (setting [8]), less than 30%; in test [3] (setting [10]) it was greater than 70%; in test [4] (setting [12]), 30 to 70%.

Regarding `C[C@@H]1CN(c2ccc(-n3cc(-c4cc(Cl)cc(NS(=O)(=O)N5CCCC5)c4F)c(-c4ccncc4)n3)cc2)CCN1CC1CCN(c2ccc([C@H]3CCC(=O)NC3=O)cc2)CC1` [Compound 316, N-[5-chloro-3-(1-{4-[(3R)-4-[(1-{4-[(3R)-2,6-dioxopiperidin-3-yl]phenyl}piperidin-4-yl)methyl]-3-methylpiperazin-1-yl]phenyl}-3-(pyridin-4-yl)-1H-pyrazol-4-yl)-2-fluorophenyl]pyrrolidine-1-sulfonamide], the DC50 in test [1] (setting [13]) is less than 10 nM; in test [2] (setting [15]), 10 to 50 nM; in test [3] (setting [17]) it was less than 10 nM; in test [4] (setting [19]), less than 10 nM. In addition, the Dmax in test [1] (setting [14]) was greater than 70%; in test [2] (setting [16]) it was greater than 70%; in test [3] (setting [18]), greater than 70%; in test [4] (setting [20]) it was 30 to 70%.

In the case of `CCCS(=O)(=O)Nc1cccc(-c2nc(C(C)(C)C)sc2-c2ccnc(N[C@H]3CC[C@@H](N4CCN(CC5CCN(c6ccc(C7CCC(=O)NC7=O)cn6)CC5)CC4)CC3)n2)c1F` (mixture of isomers) [Compound 134, N-{3-[2-tert-butyl-5-(2-{[(1s,4s)-4-{4-[(1-{5-[(3RS)-2,6-dioxopiperidin-3-yl]pyridin-2-yl}piperidin-4-yl)methyl]piperazin-1-yl}cyclohexyl]amino}pyrimidin-4-yl)-1,3-thiazol-4-yl]-2-fluorophenyl}propane-1-sulfonamide], the 50% degradation concentration (DC50) is 10 to 50 nM in test [1] (setting [5]), 50 to 500 nM in test [2] (setting [7]), 10 to 50 nM in test [3] (setting [9]) and 10 to 50 nM in test [4] (setting [11]). Further, the Dmax in test [1] (setting [6]) was 30 to 70%; in test [2] (setting [8]) it was 30 to 70%; in test [3] (setting [10]), greater than 70%; in test [4] (setting [12]), 30 to 70%.
